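48-hour exposure; five concentrations; linearly interpolated endpoints. GI50: concentration for 50% inhibition of growth.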 Activity calls are given as the source filed them. No stated cut-off is given here; in the data, active = GI50 up to about 1.1 µM and inactive = higher.
Columns and labels:
Experiment in all cases: NCI-60 cell line screen, 48 h
HL-60 = test system: HL-60
OVCAR-4 = test system: OVCAR-4
SW-620 = test system: SW-620
SK-OV-3 = test system: SK-OV-3
NCI-H460 = test system: NCI-H460
DU-145 = test system: DU-145
U-251 = test system: U-251
SK-MEL-28 = test system: SK-MEL-28
OVCAR-3 = test system: OVCAR-3
KM12 = test system: KM12
SNB-19 = test system: SNB-19
NCI/ADR-RES = test system: NCI/ADR-RES
UO-31 = test system: UO-31
LOX IMVI = test system: LOX IMVI
SNB-75 = test system: SNB-75
MCF7 = test system: MCF7
SF-295 = test system: SF-295
SF-539 = test system: SF-539
UACC-62 = test system: UACC-62
HCC 2998 = test system: HCC 2998

Measured: GI50

COc1ccc(N2C(=O)CS(=O)(=O)C2c2cccc(Oc3ccccc3)c2)cc1 (stereo not drawn)
inactive: HL-60 3.32 µM | OVCAR-4 5.79 µM | SW-620 3.27 µM | SK-OV-3 4.38 µM | NCI-H460 2.61 µM | DU-145 6.65 µM | U-251 4.66 µM | SK-MEL-28 16.2 µM | OVCAR-3 4.03 µM | KM12 4.4 µM | SNB-19 5.53 µM | NCI/ADR-RES 2.89 µM | UO-31 7.18 µM | LOX IMVI 4.4 µM | SNB-75 4.28 µM | MCF7 1.87 µM | SF-295 3.94 µM | SF-539 3.54 µM | UACC-62 2.21 µM

CC(=O)N[C@@H](Cc1ccc(O)cn1)C(=O)NCc1ccc(Cl)cc1
inactive: HL-60 > 100 µM | OVCAR-4 > 100 µM | SW-620 > 100 µM | SK-OV-3 > 100 µM | NCI-H460 > 100 µM | DU-145 > 100 µM | U-251 > 100 µM | SK-MEL-28 > 100 µM | OVCAR-3 > 100 µM | KM12 > 100 µM | HCC 2998 > 100 µM | SNB-19 > 100 µM | NCI/ADR-RES > 100 µM | UO-31 > 100 µM | LOX IMVI > 100 µM | MCF7 > 100 µM | SF-295 > 100 µM | SF-539 > 100 µM | UACC-62 > 100 µM

O=c1[nH]nc(Nc2ccccc2)c2nnn(Cc3ccccc3)c12
inactive: HL-60 > 100 µM | OVCAR-4 8.32 µM | SW-620 > 100 µM | NCI-H460 85.3 µM | DU-145 > 100 µM | U-251 30.7 µM | SK-MEL-28 > 100 µM | KM12 > 100 µM | HCC 2998 > 100 µM | SNB-19 74 µM | NCI/ADR-RES 50.8 µM | UO-31 > 100 µM | LOX IMVI > 100 µM | SNB-75 18.7 µM | MCF7 > 100 µM | SF-295 86.9 µM | SF-539 54.2 µM | UACC-62 > 100 µM

CCN1C2=NCCN2S(=O)(=O)c2ccccc21
inactive: HL-60 > 100 µM | OVCAR-4 > 100 µM | SW-620 > 100 µM | SK-OV-3 > 100 µM | NCI-H460 > 100 µM | DU-145 > 100 µM | U-251 > 100 µM | SK-MEL-28 > 100 µM | OVCAR-3 > 100 µM | KM12 > 100 µM | HCC 2998 > 100 µM | SNB-19 > 100 µM | NCI/ADR-RES > 100 µM | UO-31 > 100 µM | LOX IMVI > 100 µM | MCF7 > 100 µM | SF-295 > 100 µM | SF-539 > 100 µM | UACC-62 > 100 µM

CSc1nc(C)cc(Nc2ccc(O)c(CN3CCOCC3)c2)n1
inactive: HL-60 > 100 µM | OVCAR-4 > 100 µM | SW-620 > 100 µM | SK-OV-3 > 100 µM | NCI-H460 > 100 µM | DU-145 > 100 µM | U-251 > 100 µM | SK-MEL-28 > 100 µM | OVCAR-3 > 100 µM | KM12 > 100 µM | HCC 2998 > 100 µM | SNB-19 > 100 µM | NCI/ADR-RES > 100 µM | UO-31 71 µM | LOX IMVI > 100 µM | SNB-75 > 100 µM | MCF7 > 100 µM | SF-295 > 100 µM | SF-539 > 100 µM | UACC-62 > 100 µM

CCCCCCCCCCCCCCCC(=O)OC(COC(C)=O)CO[PH](=O)O (stereo not drawn)
inactive: HL-60 31.9 µM | OVCAR-4 58.2 µM | SW-620 33.2 µM | NCI-H460 31.6 µM | DU-145 71.4 µM | U-251 21.6 µM | SK-MEL-28 35.2 µM | OVCAR-3 > 100 µM | KM12 18.3 µM | HCC 2998 21.4 µM | SNB-19 36.5 µM | NCI/ADR-RES 23.1 µM | UO-31 26.3 µM | LOX IMVI 23.2 µM | SNB-75 22.4 µM | MCF7 > 100 µM | SF-295 17.6 µM | SF-539 20.8 µM | UACC-62 37.3 µM

COc1cc2nc(-c3cccs3)nc(Nc3cccc([N+](=O)[O-])c3)c2cc1OC
inactive: HL-60 43.4 µM | OVCAR-4 30.9 µM | SW-620 24.2 µM | SK-OV-3 20.3 µM | NCI-H460 26.3 µM | DU-145 16.3 µM | U-251 17.3 µM | SK-MEL-28 23.7 µM | OVCAR-3 20.7 µM | KM12 17.9 µM | SNB-19 17.6 µM | NCI/ADR-RES 20.8 µM | UO-31 19.2 µM | LOX IMVI 18.4 µM | SNB-75 29 µM | MCF7 24.9 µM | SF-295 21.6 µM | SF-539 18.2 µM | UACC-62 16.8 µM

O=C1/C(=C\c2ccco2)Oc2ccccc21
inactive: HL-60 39.4 µM | OVCAR-4 > 100 µM | SW-620 > 100 µM | SK-OV-3 > 100 µM | NCI-H460 > 100 µM | DU-145 > 100 µM | U-251 > 100 µM | SK-MEL-28 > 100 µM | OVCAR-3 98.9 µM | KM12 > 100 µM | HCC 2998 > 100 µM | SNB-19 > 100 µM | NCI/ADR-RES > 100 µM | UO-31 76.2 µM | LOX IMVI > 100 µM | SNB-75 > 100 µM | MCF7 29.4 µM | SF-295 > 100 µM | UACC-62 > 100 µM

O=C(CN1CCN(c2ccccn2)CC1)N1CCCn2c1nc1ccccc1c2=O
inactive: HL-60 > 100 µM | OVCAR-4 > 100 µM | SW-620 > 100 µM | SK-OV-3 > 100 µM | NCI-H460 > 100 µM | DU-145 > 100 µM | U-251 > 100 µM | OVCAR-3 > 100 µM | KM12 > 100 µM | HCC 2998 > 100 µM | SNB-19 > 100 µM | NCI/ADR-RES > 100 µM | UO-31 > 100 µM | LOX IMVI > 100 µM | SNB-75 > 100 µM | MCF7 > 100 µM | SF-295 > 100 µM | SF-539 > 100 µM | UACC-62 > 100 µM

CN/C(N)=N/N=C1/C(=O)Nc2ccccc21
inactive: HL-60 > 100 µM | OVCAR-4 > 100 µM | SW-620 > 100 µM | SK-OV-3 > 100 µM | NCI-H460 > 100 µM | DU-145 > 100 µM | U-251 > 100 µM | SK-MEL-28 > 100 µM | KM12 > 100 µM | HCC 2998 > 100 µM | SNB-19 > 100 µM | NCI/ADR-RES > 100 µM | UO-31 > 100 µM | LOX IMVI > 100 µM | SNB-75 > 100 µM | MCF7 > 100 µM | SF-295 > 100 µM | UACC-62 > 100 µM

OCCCCCNc1nc(O)c2[nH]cnc2n1
inactive: HL-60 > 100 µM | OVCAR-4 > 100 µM | SW-620 > 100 µM | SK-OV-3 > 10 µM | NCI-H460 > 100 µM | DU-145 > 100 µM | U-251 > 100 µM | OVCAR-3 > 100 µM | KM12 > 100 µM | HCC 2998 > 100 µM | SNB-19 > 100 µM | NCI/ADR-RES > 100 µM | UO-31 > 100 µM | LOX IMVI > 100 µM | SNB-75 > 100 µM | MCF7 > 10 µM | SF-295 > 10 µM | SF-539 8.17 µM | UACC-62 > 100 µM

Reference: ChEMBL document CHEMBL1201862, “PubChem BioAssay data set” (2004)
